In patent US20110065694A1 (priority 2009, published 2011):

Molecular target: human histamine H3 receptor (Homo sapiens, UniProt Q9Y5N1)
Assay: H3 GTPγS assay (SPA method), histamine H3 in vitro assay
Assay type: biochemical
Settings: not given
Description: Briefly, cells expressing the human histamine H3 receptor were homogenized in 15 mM Tris-HCl pH 7.5, 2 mM MgCl2, 0.3 mM EDTA, and 1 mM EGTA. […] Membranes were frozen in liquid nitrogen until use. On the day of the assay, membranes were thawed and diluted in assay buffer (20 mM HEPES pH 7.4, 100 mM NaCl, 10 μg/ml saponin, 1 mM MgCl2) to give 500 μg/ml and mixed (v/v) with GDP in assay buffer for a final GDP concentration of 10 μM and incubated on ice for at least […]. PVT-WGA beads (Amersham, RPNQ001) were diluted in assay buffer at 50 mg/mL and mixed with GTPγ[^35S] (Amersham, SJ1308) diluted in assay buffer to give ˜25,000 dpm/10 μL and mixed vol/vol just before the start of the reaction.
For antagonists testing, 10 μL of a reference agonist ([…]) instead of 10 μL buffer was added at a concentration corresponding to the EC80 (30 nM).
The compounds provided herein were tested in the histamine H3 in vitro assay. In one embodiment, the respective HCl salts of the compounds provided herein were prepared using standard chemical procedures and tested in the histamine H3 in vitro assay.

Sequence of human histamine H3 receptor (Q9Y5N1 whole entry): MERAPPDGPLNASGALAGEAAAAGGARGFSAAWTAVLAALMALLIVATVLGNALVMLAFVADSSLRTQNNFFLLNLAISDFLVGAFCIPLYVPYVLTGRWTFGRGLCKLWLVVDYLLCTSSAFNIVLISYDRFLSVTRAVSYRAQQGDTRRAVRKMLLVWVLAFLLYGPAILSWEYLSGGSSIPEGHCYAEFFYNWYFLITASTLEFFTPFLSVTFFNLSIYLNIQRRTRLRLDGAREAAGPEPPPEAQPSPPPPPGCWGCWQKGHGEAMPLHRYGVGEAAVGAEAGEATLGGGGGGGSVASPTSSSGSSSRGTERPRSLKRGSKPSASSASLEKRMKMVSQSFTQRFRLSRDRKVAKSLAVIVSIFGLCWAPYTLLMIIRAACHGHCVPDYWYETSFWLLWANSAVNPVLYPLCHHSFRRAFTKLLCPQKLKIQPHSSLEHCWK

Compound	IC50
N#Cc1ccc(-c2ccc3c(c2)nc2n3C3CCC2CN(C2CCC2)C3)cc1 (stereo not drawn) [Compound 26, 4-(3-cyclobutyl-2,3,4,5-tetrahydro-1H-1,5-ethanobenzo[4,5]imidazo[1,2-d][1,4]diazepin-8-yl)benzonitrile]	< 100 nM
Brc1ccc2c(c1)nc1n2CC2CCCN2CC1 (stereo not drawn) [Compound 12, 9-bromo-2,3,5,6,13,13a-hexahydro-1H-benzo[4,5]imidazo[1,2-d]pyrrolo[1,2-a][1,4]diazepine]	> 1000 nM
NCc1ccc(-c2ccc3c(c2)nc2n3C3CCC2CN(C2CCC2)C3)cc1 (stereo not drawn) [Compound 31, (4-(3-cyclobutyl-2,3,4,5-tetrahydro-1H-1,5-ethanobenzo[4,5]imidazo[1,2-d][1,4]diazepin-8-yl)phenyl)methanamine]	< 100 nM
Brc1ccc2c(c1)nc1n2CCN2CCC[C@H]2C1 [Compound 1, (S)-10-bromo-2,3,5,6,13,13a-hexahydro-1H-benzo[4,5]imidazo[1,2-d]pyrrolo[2,1-g][1,4]diazepine]	< 1000 nM
NCc1ccc(-c2ccc3c(c2)nc2n3CC3CCC(C2)N3C2CCC2)cc1 (stereo not drawn) [Compound 23, (4-(13-cyclobutyl-6,7,8,9,10,11-hexahydro-7,10-epiminobenzo[4,5]imidazo[1,2-a]azocin-3-yl)phenyl)-methanamine]	< 10 nM
c1coc(-c2ccc3c(c2)nc2n3CC3CCC(C2)N3C2CCC2)c1 (stereo not drawn) [Compound 19, 13-cyclobutyl-3-(furan-2-yl)-6,7,8,9,10,11-hexahydro-7,10-epiminobenzo[4,5]imidazo[1,2-a]azocine]	< 100 nM

Same assay, conditions: membranes of cells expressing human H3; GTPγ[35S] SPA; antagonist testing with reference agonist at EC80 (30 nM); in one embodiment HCl salts tested; read-out: Potency (functional potency as indicated by IC50)

Compound	IC50
N#Cc1ccc(-c2ccc3c(c2)nc2n3CC3CCC(C2)N3C2CCC2)cc1 (stereo not drawn) [Compound 20, 4-(13-cyclobutyl-6,7,8,9,10,11-hexahydro-7,10-epiminobenzo[4,5]imidazo[1,2-a]azocin-3-yl)benzonitrile]	< 10 nM
c1cnc(-c2ccc3c(c2)nc2n3C3CCC2CN(C2CCC2)C3)cn1 (stereo not drawn) [Compound 30, 3-cyclobutyl-8-(pyrazin-2-yl)-2,3,4,5-tetrahydro-1H-1,5-ethanobenzo[4,5]imidazo[1,2-d][1,4]diazepine]	< 100 nM
N#Cc1ccc(-c2ccc3c(c2)nc2n3CC3CC2CN3C2CCC2)cc1 (stereo not drawn) [Compound 36, 4-(3-cyclobutyl-2,3,4,5-tetrahydro-1H-2,5-methanobenzo[4,5]imidazo[1,2-d][1,4]diazepin-8-yl)benzonitrile]	< 1000 nM
N#Cc1ccc(-c2ccc3c(c2)nc2n3CC3CCC(C2)N3C2CCC2)cc1 (single isomer, unassigned) [Compound 44]	< 10 nM
c1ccc2c(c1)ncn2-c1ccc2c(c1)nc1n2CC2CCC(C1)N2C1CCC1 (stereo not drawn) [Compound 61, 3-(1H-benzo[d]imidazol-1-yl)-13-cyclobutyl-6,7,8,9,10,11-hexahydro-7,10-epiminobenzo[4,5]imidazo[1,2-a]azocine]	< 100 nM
c1ccc2c(c1)ncn2-c1ccc2c(c1)nc1n2CC2CC1CN2C1CCC1 (stereo not drawn) [Compound 38, 8-(1H-benzo[d]imidazol-1-yl)-3-cyclobutyl-2,3,4,5-tetrahydro-1H-2,5-methanobenzo[4,5]imidazo[1,2-d][1,4]diazepine]	< 1000 nM
CC1Cc2nc3cc(-c4ccc(C#N)cc4)ccc3n2CCN1C1CCC1 (stereo not drawn) [Compound 41, 4-(3-cyclobutyl-4-methyl-2,3,4,5-tetrahydro-1H-benzo[4,5]imidazo[1,2-d][1,4]diazepin-8-yl)benzonitrile]	< 10 nM
c1cn2cc(-c3ccc4c(c3)nc3n4CC4CC3CN4C3CCC3)ccc2n1 (stereo not drawn) [Compound 37, 3-cyclobutyl-8-(imidazo[1,2-a]pyridin-6-yl)-2,3,4,5-tetrahydro-1H-2,5-methanobenzo[4,5]imidazo[1,2-d][1,4]diazepine]	> 1000 nM
c1cn2cc(-c3ccc4c(c3)nc3n4CC4CCC(C3)N4C3CCC3)ccc2n1 (stereo not drawn) [Compound 60, 13-cyclobutyl-3-(imidazo[1,2-a]pyridin-6-yl)-6,7,8,9,10,11-hexahydro-7,10-epiminobenzo[4,5]imidazo[1,2-a]azocine]	< 10 nM
N#Cc1ccc(-c2ccc3c(c2)nc2n3CCCN3CCCCC3C2)cc1 (stereo not drawn) [Compound 66, 4-(2,3,4,6,7,8,15,15a-octahydro-1H-benzo[4,5]imidazo[1,2-a]pyrido[2,1-d][1,5]diazocin-12-yl)benzonitrile]	< 10 nM
N#Cc1ccc(-c2ccc3c(c2)nc2n3CC3CCC(C2)N3C2CCC2)cc1F (stereo not drawn) [Compound 24, 4-(13-cyclobutyl-6,7,8,9,10,11-hexahydro-7,10-epiminobenzo[4,5]imidazo[1,2-a]azocin-3-yl)-2-fluorobenzonitrile]	< 10 nM

The next lines start with the values.

IC50	Compound
< 10 nM	c1cc2c(cc1CN1CCOCC1)nc1n2CCN2CCCC2C1 (stereo not drawn) [Compound 75, 4-((2,3,5,6,13,13a-hexahydro-1H-benzo[4,5]imidazo[,2-d]pyrrolo[2,1-g][1,4]diazepin-10-yl)methyl)morpholine]
< 100 nM	c1cc2c(cc1CN1CCOCC1)nc1n2CCN2CCCCC2C1 (single isomer, unassigned) [Compound 51]
> 1000 nM	c1cnc(-c2ccc3c(c2)nc2n3CCN3CCC[C@H]3C2)cn1 [Compound 6, (S)-10-(pyrazin-2-yl)-2,3,5,6,13,13a-hexahydro-1H-benzo[4,5]imidazo[1,2-d]pyrrolo[2,1-g][1,4]diazepine]
< 100 nM	c1ccc2c(c1)CCN(Cc1ccc3c(c1)nc1n3CCCN3CCCCC3C1)C2 (stereo not drawn) [Compound 69]
< 100 nM	Clc1ccc2c(c1)nc1n2CCCN(C2CCC2)CC1 [Compound 57, 10-chloro-3-cyclobutyl-1,2,3,4,5,6-hexahydrobenzo[4,5]imidazo[1,2-a][1,5]diazocine]
< 10 nM	c1cc2c(cc1CN1CCOCC1)nc1n2CCN2CCCCC2C1 (stereo not drawn) [Compound 17, 4-((1,2,3,4,6,7,14,14a-octahydrobenzo[4,5]imidazo[1,2-d]pyrido[2,1-g][1,4]diazepin-11-yl)methyl)morpholine]
< 1000 nM	N#Cc1ccc(-c2ccc3c(c2)nc2n3CCN(C3CCC3)C2)cc1 [Compound 53, 4-(2-cyclobutyl-1,2,3,4-tetrahydrobenzo-[4,5]imidazo[1,2-a]pyrazin-8-yl)benzonitrile]
< 100 nM	c1cn2cc(-c3ccc4c(c3)nc3n4CCN4CCCC4C3)ccc2n1 (single isomer, unassigned) [Compound 78]
< 100 nM	N#Cc1ccc(-c2ccc3c(c2)nc2n3CCN3CCCCC3C2)cc1 (single isomer, unassigned) [Compound 46]
< 10 nM	c1cn2cc(-c3ccc4c(c3)nc3n4CCCN4CCCC4C3)ccc2n1 (single isomer, unassigned) [Compound 83]
< 100 nM	Brc1ccc2c(c1)nc1n2CCN2CCCCC2C1 (stereo not drawn) [Compound 7, 11-bromo-1,2,3,4,6,7,14,14a-octahydrobenzo-[4,5]imidazo[1,2-d]pyrido[2,1-g][1,4]diazepine]
< 10 nM	c1cn2cc(-c3ccc4c(c3)nc3n4CCCN4CCCC4C3)ccc2n1 (stereo not drawn) [Compound 81, 11-(imidazo[1,2-a]pyridin-6-yl)-1,2,3,5,6,7,14,14a-octahydrobenzo[4,5]imidazo[1,2-a]pyrrolo[2,1-d][1,5]diazocine]
< 100 nM	CC(=O)Nc1ccc(-c2ccc3c(c2)nc2n3CCN3CCC[C@H]3C2)cc1 [Compound 3, (S)-N-(4-(2,3,5,6,13,13a-hexahydro-1H-benzo[4,5]imidazo[1,2-d]pyrrolo[2,1-g][1,4]diazepin-10-yl)phenyl)acetamide]
< 10 nM	N#Cc1ccc(-c2ccc3c(c2)nc2n3CCCN(C3CCC3)CC2)cc1 [Compound 58, 4-(3-cyclobutyl-1,2,3,4,5,6-hexahydrobenzo[4,5]imidazo[1,2-a][1,5]diazocin-10-yl)benzonitrile]
< 1000 nM	c1ccc2c(c1)ncn2-c1ccc2c(c1)nc1n2CCN(C2CCC2)C1 [Compound 55, 8-(1H-benzo[d]imidazol-1-yl)-2-cyclobutyl-1,2,3,4-tetrahydrobenzo[4,5]imidazo[1,2-a]pyrazine]
< 10 nM	c1cc2c(cc1CN1CCOCC1)nc1n2CCN2CCCCC2C1 (single isomer, unassigned) [Compound 50]
< 10 nM	c1cn2cc(-c3ccc4c(c3)nc3n4CCN4CCCC4C3)ccc2n1 (single isomer, unassigned) [Compound 77]
< 1000 nM	CC1Cn2c(nc3cc(Br)ccc32)CCN1C1CCC1 (stereo not drawn) [Compound 42, 8-bromo-3-cyclobutyl-2-methyl-2,3,4,5-tetrahydro-1H-benzo[4,5]imidazo[1,2-d][1,4]diazepine]
< 10 nM	c1cn(-c2ccc3c(c2)nc2n3CCN3CCCCC3C2)cn1 (stereo not drawn) [Compound 10, 11-(1H-imidazol-1-yl)-1,2,3,4,6,7,14,14a-octahydrobenzo[4,5]imidazo[1,2-d]pyrido[2,1-g][1,4]diazepine]
> 1000 nM	Brc1ccc2c(c1)nc1n2CCN(C2CCC2)C1 [Compound 52, 8-bromo-2-cyclobutyl-1,2,3,4-tetrahydrobenzo[4,5]imidazo[1,2-a]pyrazine]
< 10 nM	N#Cc1ccc(-c2ccc3c(c2)nc2n3CCN3CCCC3C2)cc1 (stereo not drawn) [Compound 73, 4-(2,3,5,6,13,13a-hexahydro-1H-benzo[4,5]imidazo[1,2-d]pyrrolo[2,1-g][1,4]diazepin-10-yl)benzonitrile]
< 1000 nM	c1cn2cc(-c3ccc4c(c3)nc3n4CCN(C4CCC4)C3)ccc2n1 [Compound 54, 2-cyclobutyl-8-(imidazo[1,2-a]pyridin-6-yl)-1,2,3,4-tetrahydrobenzo[4,5]imidazo[1,2-a]pyrazine]
